Values after ≈ are worked out from the molar mass of the structure shown.
Tests used:
Trichomonas vaginalis [1] = test: Antitrichomonas activity against metronidazole-susceptible Trichomonas vaginalis; assay type: functional
Trichomonas vaginalis [2] = test: Antitrichomonas activity against metronidazole-resistant Trichomonas vaginalis ATCC 50143; assay type: functional
Spermatozoa = test: Spermicidal activity against human spermatozoa assessed as immobilization measured for 60 seconds; assay type: functional; set-up: concentration or dose not given beside the values
HeLa = test: Cytotoxicity against human HeLa cells; assay type: cell-based
[3] = Toxicity against Lactobacillus jensenii ATCC 25258
Trichomonas vaginalis [4] = test: Ratio of MIC for metronidazole to compound for metronidazole-susceptible Trichomonas vaginalis; assay type: functional
Trichomonas vaginalis [5] = test: Ratio of MIC for metronidazole to compound for metronidazole-resistant Trichomonas vaginalis ATCC 50143; assay type: functional

MIC (Trichomonas vaginalis [1]) [µM] | MIC (Trichomonas vaginalis [2]) [µM] | Structure (SMILES) | Activity (Spermatozoa) [%] | IC50 (HeLa) [µg/mL] | IC50 [3] [µg/mL] | Ratio (Trichomonas vaginalis [4]) | Ratio (Trichomonas vaginalis [5])
1.9 (≈ 0.708 µg/mL) | 26.9 (≈ 10 µg/mL) | Cc1ncc([N+](=O)[O-])n1CCSC(=S)N1CCC2(CC1)OCCO2 | <100 | > 1000 | > 1000 | – | –
1.89 (≈ 0.621 µg/mL) | 30.5 (≈ 10 µg/mL) | Cc1ncc([N+](=O)[O-])n1CCSC(=S)N1CCC(=O)CC1 | <100 | > 1000 | 380 (≈ 1160 µM) | – | –
3.24 (≈ 1.25 µg/mL) | 64.8 (≈ 25 µg/mL) | CCOC(=O)C1CCN(C(=S)SCCn2c([N+](=O)[O-])cnc2C)CC1 | 100 | 510 (≈ 1320 µM) | > 1000 | – | –
12.4 (≈ 5.02 µg/mL) | 49.5 (≈ 20 µg/mL) | Cc1ncc([N+](=O)[O-])n1CCSC(=S)N1CCC(Cc2ccccc2)CC1 | 100 | > 1000 | > 1000 | – | –
1.68 (≈ 0.698 µg/mL) | 24.1 (≈ 10 µg/mL) | Cc1ncc([N+](=O)[O-])n1CCSC(=S)N1CCC(C#N)(c2ccccc2)CC1 | <100 | > 1000 | > 1000 | – | –
1.41 (≈ 0.466 µg/mL) | 30.3 (≈ 10 µg/mL) | Cc1ncc([N+](=O)[O-])n1CCSC(=S)N1CCC(O)CC1 | 100 | 930 (≈ 2810 µM) | 350 (≈ 1060 µM) | – | –
1.53 (≈ 0.675 µg/mL) | 56.7 (≈ 25 µg/mL) | Cc1ncc([N+](=O)[O-])n1CCSC(=S)N1CCC(OC(=O)C(Cl)Cl)CC1 | 100 | > 1000 | 740 (≈ 1680 µM) | – | –
12.4 (≈ 5.07 µg/mL) | 61.3 (≈ 25 µg/mL) | Cc1ncc([N+](=O)[O-])n1CCSC(=S)N1CCC(OS(C)(=O)=O)CC1 | 100 | > 1000 | > 1000 | – | –
49.3 (≈ 20.1 µg/mL) | 246 (≈ 100 µg/mL) | Cc1ncc([N+](=O)[O-])n1CCSC(=S)N1CCC(OC(=O)CCl)CC1 | 100 | 930 (≈ 2290 µM) | 590 (≈ 1450 µM) | – | –
1.37 (≈ 0.624 µg/mL) | 54.9 (≈ 25 µg/mL) | Cc1ncc([N+](=O)[O-])n1CCSC(=S)N1CCC(OC(=O)CN2CCCCC2)CC1 | <100 | 760 (≈ 1670 µM) | > 1000 | – | –
1.36 (≈ 0.622 µg/mL) | 54.7 (≈ 25 µg/mL) | Cc1ncc([N+](=O)[O-])n1CCSC(=S)N1CCC(OC(=O)CN2CCOCC2)CC1 | <100 | 840 (≈ 1840 µM) | > 1000 | – | –
2.41 (≈ 1.25 µg/mL) | 96.7 (≈ 50.1 µg/mL) | Cc1ncc([N+](=O)[O-])n1CCSC(=S)N1CCC(OC(=O)CSC(=S)N2CCCC2)CC1 | <100 | > 1000 | > 1000 | – | –
2.35 (≈ 1.25 µg/mL) | 37.7 (≈ 20 µg/mL) | Cc1ncc([N+](=O)[O-])n1CCSC(=S)N1CCC(OC(=O)CSC(=S)N2CCCCC2)CC1 | <100 | 980 (≈ 1840 µM) | > 1000 | – | –
11.7 (≈ 2 µg/mL) | 292 (≈ 50 µg/mL) | Cc1ncc([N+](=O)[O-])n1CCO [METRONIDAZOLE] | <100 | > 1000 | > 1000 | – | –
– | – | CCCCCCCCCc1ccc(OCCOCCOCCOCCOCCOCCOCCOCCOCCO)cc1 [NONOXYNOL 9] | 100 | 33 (≈ 53.5 µM) | 33 (≈ 53.5 µM) | – | –

Structure (SMILES) | MIC (Trichomonas vaginalis [1]) [µM] | MIC (Trichomonas vaginalis [2]) [µM] | Activity (Spermatozoa) [%] | IC50 (HeLa) [µg/mL] | IC50 [3] [µg/mL] | Ratio (Trichomonas vaginalis [4]) | Ratio (Trichomonas vaginalis [5])
Cc1ncc([N+](=O)[O-])n1CCSC(=S)N1CCCCC1C (stereo not drawn) | 1.9 (≈ 0.624 µg/mL) | 15.2 (≈ 4.99 µg/mL) | 100 | 170 (≈ 518 µM) | > 1000 | 3 | 10
Cc1ncc([N+](=O)[O-])n1CCSC(=S)N1CCCC(C)C1 (stereo not drawn) | 1.9 (≈ 0.624 µg/mL) | 15.2 (≈ 4.99 µg/mL) | 100 | 170 (≈ 518 µM) | > 1000 | 3 | 10
Cc1ncc([N+](=O)[O-])n1CCSC(=S)N1CCC(C)CC1 | 1.03 (≈ 0.338 µg/mL) | 14.3 (≈ 4.7 µg/mL) | 100 | 190 (≈ 578 µM) | > 1000 | 10 | 20
CCC1CCCCN1C(=S)SCCn1c([N+](=O)[O-])cnc1C (stereo not drawn) | 3.65 (≈ 1.25 µg/mL) | 14.6 (≈ 5 µg/mL) | 100 | 94 (≈ 274 µM) | > 1000 | 3 | 10
Cc1ncc([N+](=O)[O-])n1CCSC(=S)N1C(C)CCCC1C (stereo not drawn) | 1.83 (≈ 0.627 µg/mL) | 29.2 (≈ 10 µg/mL) | 100 | 130 (≈ 380 µM) | > 1000 | 3 | 10

Reference: ChEMBL document CHEMBL2034943, “Potentiating Metronidazole Scaffold against Resistant Trichomonas: Design, Synthesis, Biology and 3D-QSAR Analysis” (ACS Med Chem Lett, 2012)
